Measurements as given in patent US9809578B2, “Pyrazolyl urea, thiourea, guanidine and cyanoguanidine compounds as trkA kinase inhibitors” (Array BioPharma Inc., priority 2012, dated 2017).

What was measured:
Type in all cases: biochemical
Conditions in all cases: 10 μM, ATP near Km
MSSK1 = target: T1, MSSK1 (Homo sapiens, UniProt Q9UPE1); test: KinaseProfiler MSSK1
T1 construct: purchased Millipore, Inc. (KinaseProfiler service)
Description: (§1) The compound was run in duplicate at a concentration of ATP near the Km for each individual kinase according to Millipore's specifications.

WNK3 = target: T2, WNK3 (Homo sapiens, UniProt Q9BYP7); test: KinaseProfiler WNK3
T2 construct: purchased Millipore, Inc. (KinaseProfiler service)
Description: as §1

CSK = target: T3, CSK (Homo sapiens, UniProt P41240); test: KinaseProfiler CSK
T3 construct: purchased Millipore, Inc. (KinaseProfiler service)
Description: as §1

MKK4_m = target: T4, MKK4_m (Mus musculus, UniProt P47809); test: KinaseProfiler MKK4_m
T4 construct: purchased Millipore, Inc. (KinaseProfiler service)
Description: as §1

FGFR1 = target: T5, FGFR1 (Homo sapiens, UniProt P11362); test: KinaseProfiler FGFR1
T5 construct: purchased Millipore, Inc. (KinaseProfiler service)
Description: as §1

ErbB4 = target: T6, ErbB4 (Homo sapiens, UniProt Q15303); test: KinaseProfiler ErbB4
T6 construct: purchased Millipore, Inc. (KinaseProfiler service)
Description: as §1

Haspin = target: T7, Haspin (Homo sapiens, UniProt Q8TF76); test: KinaseProfiler Haspin
T7 construct: purchased Millipore, Inc. (KinaseProfiler service)
Description: as §1

ALK4 = target: T8, ALK4 (Homo sapiens, UniProt P36896); test: KinaseProfiler ALK4
T8 construct: purchased Millipore (KinaseProfiler service)
Description: as §1

CK1_y = test: KinaseProfiler CK1_y
PAK5 = target: T9, PAK5 (Homo sapiens, UniProt Q9P286); test: KinaseProfiler PAK5
T9 construct: purchased Millipore, Inc. (KinaseProfiler service)
T9 sequence (Q9P286 whole entry): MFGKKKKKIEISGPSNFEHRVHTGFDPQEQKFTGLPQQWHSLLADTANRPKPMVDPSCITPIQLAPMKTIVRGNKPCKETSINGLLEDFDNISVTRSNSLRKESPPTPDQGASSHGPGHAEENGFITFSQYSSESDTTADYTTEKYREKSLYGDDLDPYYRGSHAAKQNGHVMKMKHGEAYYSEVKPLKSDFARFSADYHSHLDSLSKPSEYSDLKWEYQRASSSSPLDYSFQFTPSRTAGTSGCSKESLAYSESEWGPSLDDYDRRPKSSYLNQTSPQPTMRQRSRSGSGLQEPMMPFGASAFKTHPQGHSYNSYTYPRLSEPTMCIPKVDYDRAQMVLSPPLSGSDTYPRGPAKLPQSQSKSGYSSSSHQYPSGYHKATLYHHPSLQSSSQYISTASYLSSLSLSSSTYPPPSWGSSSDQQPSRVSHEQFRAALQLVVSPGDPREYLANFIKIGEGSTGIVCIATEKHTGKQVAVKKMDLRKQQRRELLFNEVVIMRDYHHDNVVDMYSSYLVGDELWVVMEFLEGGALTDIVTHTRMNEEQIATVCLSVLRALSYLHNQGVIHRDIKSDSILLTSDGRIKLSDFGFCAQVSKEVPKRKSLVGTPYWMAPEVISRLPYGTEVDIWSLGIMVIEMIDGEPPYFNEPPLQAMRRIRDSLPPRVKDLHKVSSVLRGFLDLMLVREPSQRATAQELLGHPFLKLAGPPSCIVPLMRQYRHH
Description: as §1

TSSK2 = target: T10, TSSK2 (Homo sapiens, UniProt Q96PF2); test: KinaseProfiler TSSK2
T10 construct: purchased Millipore, Inc. (KinaseProfiler service)
T10 sequence (Q96PF2 whole entry): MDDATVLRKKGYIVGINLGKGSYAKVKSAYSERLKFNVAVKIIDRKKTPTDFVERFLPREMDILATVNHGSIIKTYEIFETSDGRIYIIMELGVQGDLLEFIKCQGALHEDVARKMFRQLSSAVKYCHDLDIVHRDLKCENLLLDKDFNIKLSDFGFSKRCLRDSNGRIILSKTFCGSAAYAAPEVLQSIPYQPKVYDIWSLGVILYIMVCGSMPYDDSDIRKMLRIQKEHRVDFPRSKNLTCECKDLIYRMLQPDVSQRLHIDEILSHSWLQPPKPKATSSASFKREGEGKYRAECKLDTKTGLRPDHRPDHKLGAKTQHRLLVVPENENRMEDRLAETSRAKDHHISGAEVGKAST
Description: as §1

IGF-1R = target: T11, IGF-1R (Homo sapiens, UniProt P08069); test: KinaseProfiler IGF-1R
T11 construct: purchased Millipore, Inc. (KinaseProfiler service)
Description: as §1

DRAK1 = target: T12, DRAK1 (Homo sapiens, UniProt Q9UEE5); test: KinaseProfiler DRAK1
T12 construct: purchased Millipore, Inc. (KinaseProfiler service)
Description: as §1

TNK2 = target: T13, TNK2 (Homo sapiens, UniProt Q07912); test: KinaseProfiler TNK2
T13 construct: purchased Millipore, Inc. (KinaseProfiler service)
Description: as §1

PKAC-alpha = target: T14, PKAC-alpha (Homo sapiens, UniProt P17612); test: KinaseProfiler PKAC-alpha
T14 construct: purchased Millipore, Inc. (KinaseProfiler service)
Description: as §1

KIT = target: T15, KIT (Homo sapiens, UniProt P10721); test: KinaseProfiler KIT
T15 construct: purchased Millipore, Inc. (KinaseProfiler service)
Description: as §1

Fyn = target: T16, Fyn (Homo sapiens, UniProt P06241); test: KinaseProfiler Fyn
T16 construct: purchased Millipore, Inc. (KinaseProfiler service)
Description: as §1

IRAK1 = target: T17, IRAK1 (Homo sapiens, UniProt P51617); test: KinaseProfiler IRAK1
T17 construct: purchased Millipore, Inc. (KinaseProfiler service)
Description: as §1

NEK11 = target: T18, NEK11 (Homo sapiens, UniProt Q8NG66); test: KinaseProfiler NEK11
T18 construct: purchased Millipore, Inc. (KinaseProfiler service)
Description: as §1

TAO1 = target: T19, TAO1 (Homo sapiens, UniProt Q7L7X3); test: KinaseProfiler TAO1
T19 construct: purchased Millipore, Inc. (KinaseProfiler service)
Description: as §1

TrkB = target: T20, TrkB (Homo sapiens, UniProt Q16620); test: KinaseProfiler TrkB
T20 construct: purchased Millipore, Inc. (KinaseProfiler service)
T20 sequence (Q16620 32-822): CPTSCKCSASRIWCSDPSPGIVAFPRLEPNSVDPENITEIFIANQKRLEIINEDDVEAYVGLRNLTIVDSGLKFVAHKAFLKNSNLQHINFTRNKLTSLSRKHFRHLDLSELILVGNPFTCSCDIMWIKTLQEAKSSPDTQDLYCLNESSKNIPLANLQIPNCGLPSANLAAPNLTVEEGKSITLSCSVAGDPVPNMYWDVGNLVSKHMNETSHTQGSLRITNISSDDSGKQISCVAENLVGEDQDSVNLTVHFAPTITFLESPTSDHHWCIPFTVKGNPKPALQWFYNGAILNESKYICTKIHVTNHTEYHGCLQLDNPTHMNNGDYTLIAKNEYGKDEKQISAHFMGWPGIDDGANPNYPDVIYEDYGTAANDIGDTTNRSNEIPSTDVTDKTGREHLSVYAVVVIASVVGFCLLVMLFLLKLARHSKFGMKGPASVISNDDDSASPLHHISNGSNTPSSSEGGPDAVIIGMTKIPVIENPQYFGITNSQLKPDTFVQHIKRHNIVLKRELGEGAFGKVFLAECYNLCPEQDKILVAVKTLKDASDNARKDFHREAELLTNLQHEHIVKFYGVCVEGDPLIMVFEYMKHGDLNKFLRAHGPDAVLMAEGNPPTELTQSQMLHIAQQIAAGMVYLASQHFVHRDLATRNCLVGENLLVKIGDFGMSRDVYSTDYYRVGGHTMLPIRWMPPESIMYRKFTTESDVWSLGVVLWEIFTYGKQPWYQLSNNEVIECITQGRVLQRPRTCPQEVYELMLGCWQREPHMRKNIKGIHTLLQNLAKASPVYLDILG
Description: as §1

MRCKalpha = target: T21, MRCKalpha (Homo sapiens, UniProt Q5VT25); test: KinaseProfiler MRCKalpha
T21 construct: purchased Millipore, Inc. (KinaseProfiler service)
Description: as §1

FGFR3 = target: T22, FGFR3 (Homo sapiens, UniProt P22607); test: KinaseProfiler FGFR3
T22 construct: purchased Millipore, Inc. (KinaseProfiler service)
Description: as §1

p70S6K = target: T23, p70S6K (Homo sapiens, UniProt P23443); test: KinaseProfiler p70S6K
T23 construct: purchased Millipore, Inc. (KinaseProfiler service)
Description: as §1

Pim-1 = target: T24, Pim-1 (Homo sapiens, UniProt P11309); test: KinaseProfiler Pim-1
T24 construct: purchased Millipore, Inc. (KinaseProfiler service)
Description: as §1

Tie2 = target: T25, Tie2 (Homo sapiens, UniProt Q02763); test: KinaseProfiler Tie2
T25 construct: purchased Millipore, Inc. (KinaseProfiler service)
Description: as §1

CLK2 = target: T26, CLK2 (Homo sapiens, UniProt P49760); test: KinaseProfiler CLK2
T26 construct: purchased Millipore, Inc. (KinaseProfiler service)
T26 sequence (P49760 whole entry): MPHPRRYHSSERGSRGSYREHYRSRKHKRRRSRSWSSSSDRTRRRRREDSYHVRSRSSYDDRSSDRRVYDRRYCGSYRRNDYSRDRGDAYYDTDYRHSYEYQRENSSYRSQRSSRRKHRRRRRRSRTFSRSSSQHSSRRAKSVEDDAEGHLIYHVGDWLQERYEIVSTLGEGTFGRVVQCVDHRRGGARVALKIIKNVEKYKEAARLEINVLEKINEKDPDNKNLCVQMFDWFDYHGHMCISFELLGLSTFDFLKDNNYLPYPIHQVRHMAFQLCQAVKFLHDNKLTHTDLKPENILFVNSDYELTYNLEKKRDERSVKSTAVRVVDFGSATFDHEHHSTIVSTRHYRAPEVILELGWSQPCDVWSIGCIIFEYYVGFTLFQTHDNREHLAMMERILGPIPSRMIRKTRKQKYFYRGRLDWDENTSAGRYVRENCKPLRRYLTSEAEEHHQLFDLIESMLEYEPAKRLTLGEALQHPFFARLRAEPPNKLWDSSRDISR
Description: as §1

SGK3 = target: T27, SGK3 (Homo sapiens, UniProt Q96BR1); test: KinaseProfiler SGK3
T27 construct: purchased Millipore, Inc. (KinaseProfiler service)
Description: as §1

SGK2 = target: T28, SGK2 (Homo sapiens, UniProt Q9HBY8); test: KinaseProfiler SGK2
T28 construct: purchased Millipore, Inc. (KinaseProfiler service)
Description: as §1

MKK6 = target: T29, MKK6 (Homo sapiens, UniProt P52564); test: KinaseProfiler MKK6
T29 construct: purchased Millipore, Inc. (KinaseProfiler service)
Description: as §1

Rse = target: T30, Rse (Homo sapiens, UniProt Q06418); test: KinaseProfiler Rse
T30 construct: purchased Millipore, Inc. (KinaseProfiler service)
Description: as §1

SIK = target: T31, SIK (Homo sapiens, UniProt P57059); test: KinaseProfiler SIK
T31 construct: purchased Millipore, Inc. (KinaseProfiler service)
Description: as §1

Syk = target: T32, Syk (Homo sapiens, UniProt P43405); test: KinaseProfiler Syk
T32 construct: purchased Millipore, Inc. (KinaseProfiler service)
Description: as §1

EphB4 = target: T33, EphB4 (Homo sapiens, UniProt P54760); test: KinaseProfiler EphB4
T33 construct: purchased Millipore, Inc. (KinaseProfiler service)
T33 sequence (P54760 16-987): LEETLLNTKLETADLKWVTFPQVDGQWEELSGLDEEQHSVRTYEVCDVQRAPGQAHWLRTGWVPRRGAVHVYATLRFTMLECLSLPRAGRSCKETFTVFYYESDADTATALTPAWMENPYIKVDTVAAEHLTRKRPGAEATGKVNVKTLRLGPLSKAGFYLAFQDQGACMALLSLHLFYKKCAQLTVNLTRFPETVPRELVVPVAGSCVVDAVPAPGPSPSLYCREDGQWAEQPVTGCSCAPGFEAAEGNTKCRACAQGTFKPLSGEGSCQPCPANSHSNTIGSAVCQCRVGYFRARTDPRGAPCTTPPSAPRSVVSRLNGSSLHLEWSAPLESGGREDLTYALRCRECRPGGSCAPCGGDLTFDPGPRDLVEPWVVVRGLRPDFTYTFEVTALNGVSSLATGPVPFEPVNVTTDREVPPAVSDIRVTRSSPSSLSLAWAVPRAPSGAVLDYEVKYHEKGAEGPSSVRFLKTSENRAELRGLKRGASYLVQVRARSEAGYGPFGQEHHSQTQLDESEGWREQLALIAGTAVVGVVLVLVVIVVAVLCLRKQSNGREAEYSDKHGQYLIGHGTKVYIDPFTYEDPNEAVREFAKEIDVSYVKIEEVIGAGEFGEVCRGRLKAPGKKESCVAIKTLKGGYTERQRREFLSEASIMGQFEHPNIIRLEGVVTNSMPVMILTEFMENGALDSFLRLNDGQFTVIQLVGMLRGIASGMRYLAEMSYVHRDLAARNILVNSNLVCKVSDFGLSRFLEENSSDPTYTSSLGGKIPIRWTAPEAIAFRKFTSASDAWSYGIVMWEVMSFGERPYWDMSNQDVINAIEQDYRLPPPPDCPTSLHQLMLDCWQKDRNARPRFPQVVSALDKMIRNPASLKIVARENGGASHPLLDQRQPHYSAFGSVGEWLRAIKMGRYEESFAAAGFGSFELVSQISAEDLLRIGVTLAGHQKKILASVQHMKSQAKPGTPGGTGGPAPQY
Description: as §1

MST1 = target: T34, MST1 (Homo sapiens, UniProt Q13043); test: KinaseProfiler MST1
T34 construct: purchased Millipore, Inc. (KinaseProfiler service)
Description: as §1

CHK1 = target: T35, CHK1 (Homo sapiens, UniProt O14757); test: KinaseProfiler CHK1
T35 construct: purchased Millipore, Inc. (KinaseProfiler service)
Description: as §1

MRCKbeta = target: T36, MRCKbeta (Homo sapiens, UniProt Q9Y5S2); test: KinaseProfiler MRCKbeta
T36 construct: purchased Millipore, Inc. (KinaseProfiler service)
T36 sequence (Q9Y5S2 whole entry): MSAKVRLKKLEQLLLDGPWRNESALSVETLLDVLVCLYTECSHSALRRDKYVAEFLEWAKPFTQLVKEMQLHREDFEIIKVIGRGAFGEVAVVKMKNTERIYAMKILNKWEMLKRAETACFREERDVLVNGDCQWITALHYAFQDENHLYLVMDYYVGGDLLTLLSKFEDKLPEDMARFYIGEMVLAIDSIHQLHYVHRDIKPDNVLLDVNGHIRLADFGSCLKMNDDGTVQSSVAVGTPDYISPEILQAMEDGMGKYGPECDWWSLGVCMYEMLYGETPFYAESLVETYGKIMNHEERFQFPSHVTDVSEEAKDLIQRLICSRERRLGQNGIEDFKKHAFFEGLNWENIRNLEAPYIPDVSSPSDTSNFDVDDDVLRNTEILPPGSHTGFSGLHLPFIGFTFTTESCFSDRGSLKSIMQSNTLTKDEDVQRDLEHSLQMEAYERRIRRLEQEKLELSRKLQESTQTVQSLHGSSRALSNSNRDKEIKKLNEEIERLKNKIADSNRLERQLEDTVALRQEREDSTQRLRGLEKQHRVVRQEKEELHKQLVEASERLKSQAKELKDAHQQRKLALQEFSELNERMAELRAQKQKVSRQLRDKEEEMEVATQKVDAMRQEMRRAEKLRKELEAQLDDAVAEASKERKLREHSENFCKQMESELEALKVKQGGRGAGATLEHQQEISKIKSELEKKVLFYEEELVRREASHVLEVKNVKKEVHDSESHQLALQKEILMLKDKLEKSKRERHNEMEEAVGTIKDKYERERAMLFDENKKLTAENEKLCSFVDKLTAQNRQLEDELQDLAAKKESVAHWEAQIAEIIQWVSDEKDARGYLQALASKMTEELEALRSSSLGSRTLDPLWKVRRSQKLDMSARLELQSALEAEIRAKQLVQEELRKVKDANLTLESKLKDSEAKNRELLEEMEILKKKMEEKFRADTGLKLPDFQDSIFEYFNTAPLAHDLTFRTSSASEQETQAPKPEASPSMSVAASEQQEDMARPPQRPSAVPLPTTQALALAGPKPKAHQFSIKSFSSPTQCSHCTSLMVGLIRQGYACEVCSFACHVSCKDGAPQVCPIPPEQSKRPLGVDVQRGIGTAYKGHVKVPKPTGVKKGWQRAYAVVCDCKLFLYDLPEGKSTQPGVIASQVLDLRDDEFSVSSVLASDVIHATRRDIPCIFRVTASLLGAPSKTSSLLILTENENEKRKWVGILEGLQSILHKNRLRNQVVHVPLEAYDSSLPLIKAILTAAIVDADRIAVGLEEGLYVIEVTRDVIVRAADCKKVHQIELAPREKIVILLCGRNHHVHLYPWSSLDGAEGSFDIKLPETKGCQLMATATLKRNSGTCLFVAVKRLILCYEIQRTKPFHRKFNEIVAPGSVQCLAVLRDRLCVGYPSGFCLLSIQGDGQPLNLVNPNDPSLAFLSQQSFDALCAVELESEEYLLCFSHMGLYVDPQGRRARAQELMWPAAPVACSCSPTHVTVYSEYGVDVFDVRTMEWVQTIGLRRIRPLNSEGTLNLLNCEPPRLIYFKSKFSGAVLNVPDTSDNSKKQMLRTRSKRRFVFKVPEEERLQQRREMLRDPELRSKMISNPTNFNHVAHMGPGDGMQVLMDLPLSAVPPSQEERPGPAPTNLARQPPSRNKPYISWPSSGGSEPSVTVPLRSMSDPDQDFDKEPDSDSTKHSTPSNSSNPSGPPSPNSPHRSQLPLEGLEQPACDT
Description: as §1

CAMK2g = target: T37, CAMK2g (Homo sapiens, UniProt Q13555); test: KinaseProfiler CAMK2g
T37 construct: purchased Millipore (KinaseProfiler service)
Description: as §1

MLK1 = target: T38, MLK1 (Homo sapiens, UniProt P80192); test: KinaseProfiler MLK1
T38 construct: purchased Millipore, Inc. (KinaseProfiler service)
Description: as §1

STK33 = target: T39, STK33 (Homo sapiens, UniProt Q9BYT3); test: KinaseProfiler STK33
T39 construct: purchased Millipore, Inc. (KinaseProfiler service)
Description: as §1

CDK2/cyclinA = target: T40, CDK2/cyclinA (Homo sapiens, UniProt P24941); test: KinaseProfiler CDK2/cyclinA
T40 construct: purchased Millipore, Inc. (KinaseProfiler service)
Description: as §1

Flt1 = target: T41, Flt1 (Homo sapiens, UniProt P17948); test: KinaseProfiler Flt1
T41 construct: purchased Millipore, Inc. (KinaseProfiler service)
Description: as §1

CDK2/cyclinE = target: T42, CDK2/cyclinE (Homo sapiens, UniProt P24941); test: KinaseProfiler CDK2/cyclinE
T42 construct: purchased Millipore, Inc. (KinaseProfiler service)
Description: as §1

Cc1c(-c2cnn(C)c2)nn(-c2ccccc2)c1NC(=O)Nc1cc(C(F)(F)F)nn1-c1ccccc1 [Example 3, 1-(1′,4-dimethyl-1-phenyl-1H,1′H-[3,4′-bipyrazol]-5-yl)-3-(1-phenyl-3-(trifluoromethyl)-1H-pyrazol-5-yl)urea]
Avg POC (MSSK1): 140 POC | Avg POC (WNK3): 108 POC | Avg POC (CSK): 137.5 POC | Avg POC (MKK4_m): 132.5 POC | Avg POC (FGFR1): 96 POC | Avg POC (ErbB4): 126 POC | Avg POC (Haspin): 121 POC | Avg POC (ALK4): 104.5 POC | Avg POC (CK1_y): 98 POC | Avg POC (PAK5): 145.5 POC | Avg POC (TSSK2): 132.5 POC | Avg POC (IGF-1R): 74.5 POC | Avg POC (DRAK1): 129 POC | Avg POC (TNK2): 118.5 POC | Avg POC (PKAC-alpha): 136.5 POC | Avg POC (KIT): 86.5 POC | Avg POC (Fyn): 110 POC | Avg POC (IRAK1): 102.5 POC | Avg POC (NEK11): 110 POC | Avg POC (TAO1): 119 POC | Avg POC (TrkB): 95 POC | Avg POC (MRCKalpha): 172.5 POC | Avg POC (FGFR3): 116.5 POC | Avg POC (p70S6K): 273.5 POC | Avg POC (Pim-1): 119.5 POC | Avg POC (Tie2): 121.5 POC | Avg POC (CLK2): 135 POC | Avg POC (SGK3): 133 POC | Avg POC (SGK2): 159.5 POC | Avg POC (MKK6): 132.5 POC | Avg POC (Rse): 106.5 POC | Avg POC (SIK): 154.5 POC | Avg POC (Syk): 101 POC | Avg POC (EphB4): 116 POC | Avg POC (MST1): 92.5 POC | Avg POC (CHK1): 108 POC | Avg POC (MRCKbeta): 121.5 POC | Avg POC (CAMK2g): 112 POC | Avg POC (MLK1): 100.5 POC | Avg POC (STK33): 107.5 POC | Avg POC (CDK2/cyclinA): 100.5 POC | Avg POC (Flt1): 91.5 POC | Avg POC (CDK2/cyclinE): 106.5 POC
